Several values for one entry are separate records, joined by “and”; a condition that tells them apart may be missing. Identical values can stand only once.
Key:
[1] = test system: 2019 Novel Coronavirus, Isolate USA-WA1/2020 (SARS-CoV-2); assay: TCID50 test of SARS-CoV-2 recovered from PCA-coated test substrates (plastic, cloth, mesh), titrated on Vero E6 cells; type: cell-based; conditions: for log difference: versus virus control on substrate; for TCID50 Log10/mL: single replicates
Method: The Test Article (TA) used for this study was Protocatechuic Acid (PCA). The TA was received as an off-white powder. The PCA solution was prepared to be 30% PCA w/v in Ethanol. The PCA was prepared in 5 g increments to pre-warmed 50-60 mL ethanol until dissolved for a total of 30 g PCA in the solution. Additional ethanol was then added volumetrically to be equivalent to 100 mL.
The Test Substrates (TS) were a Plastic-type material sourced from a clear plastic laboratory bottle (Corning 431731 Octagonal bottle, 150 mL), cloth (the top layer of a N95 mask [3M 8210]), and a Sponsor-provided wire mesh to serve as a substrate for the TA. All test substrates were cut to approximately 1″×1″ in size. The test substrates were submerged into the PCA solution and dried horizontally to allow for even coating. After the substrate was thoroughly dried, the test substrate was re-submerged into the PCA solution for an additional coating.
The Test Virus used for this study was 2019 Novel Coronavirus, Isolate USA-WA1/2020 (SARS-CoV-2). The virus was stored at approximately […] prior to use. The multiplicity of infection (MOI) was 0.01 TCID50/cell.
The Cell Culture used for the TCID50 test was African Green Monkey Kidney Cells (Vero E6 cells) that were maintained in Dulbecco's […] with 10% fetal calf serum (DMEM-2). All growth media contained heat-inactivated fetal calf serum and antibiotics.
The test design is shown below in Table 1.
The Test Substrate was coated with PCA as described above. The test substrates was treated with PCA twice and allowed to fully dry overnight. In general, the time from the first coat to the next day's virus exposure was approximately 24 hours.
The treated Test Substrate plus TA was placed into a sterile 6 well cell culture plate and approximately 100 μL total of a ≤1×10^6 TCID50/mL SARS-CoV-2 virus was such that 50 μL of virus was layered on each sides of the treated test substrates. This was the procedure used for the initial Day 1 experiment.
For the confirmatory test, in an attempt to increase the recorded titer of the controls, the treated Test Substrate plus TA was placed into a sterile 6 well cell culture plate and the same amount of virus was layered onto both sides of the test substrate. However, an addition 50 μL of DMEM was added to each side to reduce the inactivation of the virus due to desiccation. Additionally, a glass coverslip was also added to help mitigate against evaporation.
After application of the virus, the virus was contact with the Test substrates for approximately 10 minutes (Groups 1, 2, and 3, Control groups 7, 8, and 9), 60 minutes (Groups 4, 5, and 6, Control Groups 10, 11, and 12). Each substrate per time per test article was performed in duplicate.
A cell culture-only control was included to indicate that cells without any TA or virus remain healthy throughout the assay. Virus-only controls without substrate was added for each timepoint to verify that the assay was performing as expected.
After the incubation time, the treated substrate was washed with 1 mL of cell culture media (DMEM-2) for approximately 5-10 minutes within the 6 well cell culture plate and the glass cover slip removed if necessary. This was the equivalent to a 10-fold dilution. The plate was gently stirred via an orbital shaker to enhance the recovery of the virus.
For the TCID50, the cell culture media (DMEM-2) used to wash the Test Substrate was serially diluted 10 fold and transferred into respective wells of a 96-well plate which contained a monolayer of African Green Monkey Kidney Cells (Vero E6 cells) for titration. The TCID50 assay was performed non-GLP according to IITRI Standard Operating Procedures for the assay. The TCID50 titers was calculated using the method of Reed-Meunch.

[2] = test system: SARS CoV-2 virus; assay: Second laboratory coupon test: virus dried on PCA-coated coupons (stainless steel, K95 mask, plastic), recovered and titrated on Vero E6 cells by CPE; type: cell-based; parameters: : unit not given here; conditions: for Average Log10 TCID50 / Average TCID50: 3 replicates; for  / Log10 TCID50 / TCID50: single replicates; for TCID50: virus dried 45 minutes-1 h
Method: The second laboratory utilized test coupons made of solid stainless steel, plastic and K95 mask were coated in 30% w/v PCA in 70% ethanol. Each coupon was dipped in PCA, allowed to dry, dipped again and allowed to dry with the opposite side of the coupon facing up. Once dry, 200 ul virus was added to each coupon and allowed to dry (45 minutes-1 h drying time). Virus was recovered by adding 2 ml DMEM/F12 media and washing the coupon, without scraping so as not to dislodge PCA crystals. A yellow color change in the media was observed indicating acidification of the media upon addition to the PA-coated coupon. The recovered virus was added to empty 96 well plates and diluted 1:10 down the plate. This was then added to Vero E6 cells that had grown to ˜70% confluence. Cytotoxicity controls without virus and recovery controls without PCA were also done in the same manner. After addition to the cells, plates were read at day 4 for the presence of cytopathic effect (CPE) due to viral infection of cells. Note that cytotoxicity and CPE cannot be differentiated in this assay, thus any dead cells are marked as positive.
Cytotoxicity was seen up to 1:100 dilution for the K95, and 1:10 for the stainless steel and plastic coupons. […] The SS=stainless steel, K95=K95 mask and P=plastic. +PCA means coupons coated with PCA. No PCA (e.g. SS-1) indicates virus recovery controls with no PCA coating that had virus dried and recovered.

[3] = cited from earlier work
[4] = in vivo; cited from earlier work
[5] = confirmatory run (Day 2), PCA on cloth, 10 min
[6] = confirmatory run (Day 2), PCA on cloth, 60 min
[7] = confirmatory run (Day 2), PCA on mesh, 10 min
[8] = confirmatory run (Day 2), PCA on mesh, 60 min
[9] = confirmatory run (Day 2), PCA on plastic, 10 min
[10] = confirmatory run (Day 2), PCA on plastic, 60 min
[11] = initial run (Day 1), PCA on cloth, 60 min incubation
[12] = initial run (Day 1), PCA on mesh, 60 min incubation
[13] = initial run (Day 1), PCA on plastic, 10 min incubation
[14] = initial run (Day 1), PCA on plastic, 60 min incubation
[15] = K95 mask coupon coated with PCA versus uncoated coupon
[16] = K95 mask coupon coated with PCA
[17] = plastic coupon coated with PCA versus uncoated coupon
[18] = stainless steel coupon coated with PCA versus uncoated coupon
[19] = stainless steel coupon coated with PCA

## O=C(O)c1ccc(O)c(O)c1 [PCA, Protocatechuic acid]
[1]; [5]
  Log average: 4.25 TCID50 Log10/mL
  log difference: −1.13 log
[1]; [6]
  Log average: 2.75 TCID50 Log10/mL
  log difference: −2.38 log
[1]; [7]
  Log average: 4.63 TCID50 Log10/mL
  log difference: −1.13 log
[1]; [8]
  Log average: 4.38 TCID50 Log10/mL
  log difference: −0.88 log
[1]; [9]
  Log average: 4.38 TCID50 Log10/mL
  log difference: −1.13 log
[1]; [10]
  Log average: 3.63 TCID50 Log10/mL
  log difference: −1.50 log
[1]; confirmatory run (Day 2, extra DMEM and coverslip), PCA on cloth, 10 min
  TCID50 Log10/mL: 4.25 TCID50 Log10/mL
[1]; confirmatory run (Day 2, extra DMEM and coverslip), PCA on cloth, 60 min
  TCID50 Log10/mL: 2.00 TCID50 Log10/mL and 3.50 TCID50 Log10/mL
[1]; confirmatory run (Day 2, extra DMEM and coverslip), PCA on mesh, 10 min
  TCID50 Log10/mL: 4.75 TCID50 Log10/mL and 4.50 TCID50 Log10/mL
[1]; confirmatory run (Day 2, extra DMEM and coverslip), PCA on mesh, 60 min
  TCID50 Log10/mL: 4.50 TCID50 Log10/mL and 4.25 TCID50 Log10/mL
[1]; confirmatory run (Day 2, extra DMEM and coverslip), PCA on plastic, 10 min
  TCID50 Log10/mL: 4.25 TCID50 Log10/mL and 4.50 TCID50 Log10/mL
[1]; confirmatory run (Day 2, extra DMEM and coverslip), PCA on plastic, 60 min
  TCID50 Log10/mL: 3.50 TCID50 Log10/mL and 3.75 TCID50 Log10/mL
[1]; in 10 minutes, virus droplet on PCA coating, aqueous environment
  virucidal effect on the SARS CoV2 virus: virucidal effect
[1]; initial run (Day 1), PCA on cloth (N95 top layer), 10 min incubation
  TCID50 Log10/mL: 2.75 TCID50 Log10/mL
[1]; initial run (Day 1), PCA on cloth, 10 min
  log difference: −1.25 log
[1]; initial run (Day 1), PCA on cloth, 10 min incubation
  Log average: 2.75 TCID50 Log10/mL
[1]; initial run (Day 1), PCA on cloth, 60 min
  log difference: −1.00 log
[1]; [11]
  Log average: 2.75 TCID50 Log10/mL
  TCID50 Log10/mL: 2.50 TCID50 Log10/mL and 3.00 TCID50 Log10/mL
[1]; initial run (Day 1), PCA on mesh, 10 min
  log difference: −0.25 log
[1]; initial run (Day 1), PCA on mesh, 10 min incubation
  Log average: 3.38 TCID50 Log10/mL
[1]; initial run (Day 1), PCA on mesh, 60 min
  log difference: −2.00 log
[1]; [12]
  Log average: 1.50 TCID50 Log10/mL
  TCID50 Log10/mL: 1.00 TCID50 Log10/mL and 2.00 TCID50 Log10/mL
[1]; initial run (Day 1), PCA on plastic, 10 min
  log difference: −0.63 log
[1]; [13]
  Log average: 3.75 TCID50 Log10/mL
  TCID50 Log10/mL: 3.75 TCID50 Log10/mL
[1]; initial run (Day 1), PCA on plastic, 60 min
  log difference: −1.13 log
[1]; [14]
  Log average: 2.88 TCID50 Log10/mL
  TCID50 Log10/mL: 3.25 TCID50 Log10/mL and 2.50 TCID50 Log10/mL
[1]; initial run (Day 1), PCA on wire mesh, 10 min incubation
  TCID50 Log10/mL: 3.50 TCID50 Log10/mL and 3.25 TCID50 Log10/mL
[2]; [15]
  Log Reduction to Virus Controls: 2.45
  Percent Log Reduction: 99.65%
[2]; [16]
  Average Log10 TCID50: 2.10
  Average TCID50: 182.4589
  : 0.03162 and 0.05012 and 0.3162
  Log10 TCID50: 2.50 and 2.30 and 1.50
  TCID50: 316.2278 and 199.5262 and 31.62
[2]; [17]
  Log Reduction to Virus Controls: 3.94
  Percent Log Reduction: 99.99%
[2]; plastic coupon coated with PCA
  Average Log10 TCID50: 1.91
  Average TCID50: 88
  : 0.1995 and 0.07943 and 0.1136
  Log10 TCID50: 1.70 and 2.10 and 1.94
  TCID50: 50.12 and 125.8925 and 87.99
[2]; [18]
  Log Reduction to Virus Controls: 2.93
  Percent Log Reduction: 99.88%
[2]; [19]
  Average Log10 TCID50: 2.37
  Average TCID50: 298.9493
  : 0.01995 and 0.1259 and 0.03162
  Log10 TCID50: 2.70 and 1.90 and 2.50
  TCID50: 501.1872 and 79.43 and 316.2278
[3]
  solubility in water: approximately 10 mg/ml
[4]
  LD50: 800 mg/kg
